In one assay the test system is microtubule. As to the kind of experiment: In vitro microtubule assembly. The format is biochemical. Particulars: both drugs at similar concentrations.
Assay [1] has as its system MCF-7 human breast tumor cells. Briefly: Ultrastructural alterations in MCF-7 cells. Type of assay: cell-based.
For another assay, the system named is P388 leukemic cells. As to the kind of experiment: Ultrastructural alterations in P388 cells. Type of assay: cell-based, murine.
For assay [2], the system named is P388 murine leukemic cells. As to the kind of experiment: Growth inhibition of exponentially growing P388 cells. Type of assay: cell-based. Particulars: Mus musculus, P388, 72 h. An excerpt:
Thus, NABV is ideal for probing intracellular Vinca alkaloid interactions because it retains the known biochemical and pharmacological properties of this class of drugs.

Assay [3] has as its system tubulin. As to the kind of experiment: Tubulin-dependent GTP hydrolysis. The following applies: both drugs at similar concentrations. The format is biochemical.
In assay [4] the test system is tubulin. As to the kind of experiment: Tubulin aggregation. Type of assay: biochemical. The following applies: both drugs at similar concentrations.
For assay [5], the system named is calf brain macromolecular components. As to the kind of experiment: Control irradiation of calf brain homogenate with ^3 H-vinblastine. Type of assay: binding. Particulars: standard photolabelling conditions; 50 nM ^3 H-vinblastine. The protocol:
The standard photolabelling mixture used contained 50 nM ^3 H-NABV (50.6 Ci/mmol), 4% dimethylsulfoxide, […] potassium phosphate buffer, pH 7.0, and 2 mg/ml of tissue homogenate or high speed pellet or supernatant fractions in a final volume of 0.05 ml in polyvinylchloride V-microtiter wells (Dynatech Labs, Inc., Alexandria, VA) in a 25° C. water bath. Photolabelling mixtures were incubated for 15 minutes at 25° C. before photolysis. Photoactivation was performed for 10-20 minutes with a UV light equipped with two 15 W self-filtering 302 nm lamps (Model xx-15, Ultra-Violet Products, Inc., San Gabriel, CA), placed 3.4 cm above the photolabelling mixture. […] In a control experiment, brain homogenate was irradiated in the presence of 50 nM ^3 H-vinblastine (10.7 Ci/mmol; Amersham Corp., Arlington Heights, IL). Photoactivated samples were immediately processed for SDS-PAGE or frozen at -70° C.
When homogenate was incubated with ^3 H-NABV in the absence of UV light for 30 minutes, no radioactivity was found in subsequent SDS-PAGE gel slices above the ambient background level, except for excess 3H-NABV which migrated near the tracking dye front. Similar results were obtained after photoactivating ^3 H-NABV in the absence of brain homogenate which was then added prior to performing SDS-PAGE and gel slice analysis.

Broadly, the IC50 is the point on the concentration scale where inhibition reaches its midpoint. Read a high IC50 as weaker potency.

As to `CCC1(O)CC2CN(CCc3c([nH]c4ccccc34)C(C(=O)OC)(c3cc4c(cc3OC)N(C)C3C(O)(C(=O)NCCNC(=O)c5ccc(N=[N+]=[N-])cc5)C(O)C5(CC)C=CCN6CCC43C65)C2)C1` (stereo not drawn) [NABV, N-(p-azidobenzoyl)-N'-beta-aminoethylvindesine], the “effect on in vitro microtubule assembly” value with microtubule is on record as “inhibit in vitro microtubule assembly”. Besides, the “ultrastructural alterations (microtubular paracrystals, mitotic arrest, multinucleated cells)” value (in assay [1]; with P388 leukemic cells) was “resembles those caused by vinblastine” throughout. In assay [2], this molecule returned an IC50 of 1.1 nM. The “effect on tubulin-dependent GTP hydrolysis” value in the assay on tubulin [3] is listed as “inhibit tubulin-dependent GTP hydrolysis”. Moreover, in the assay on tubulin [4], the “effect on tubulin aggregation” value is given as “induce tubulin aggregation”.
Take `CC[C@]1(O)C[C@@H]2CN(CCc3c([nH]c4ccccc34)[C@@](C(=O)OC)(c3cc4c(cc3OC)N(C)[C@H]3[C@@](O)(C(=O)OC)[C@H](OC(C)=O)[C@]5(CC)C=CCN6CC[C@]43[C@@H]65)C2)C1` [^3 H-vinblastine]: the “radiolabel incorporation into calf brain macromolecular components” value in assay [5] is recorded as “no radiolabel incorporation”.

(Values after patent US4765972A (priority 1986, dated 1988).)
